{"source": "PubChem BioAssay AID1963964", "about": "(Molecular Pharmacology Branch, DTP, NCI, 2024)", "system": "997726-040-R-J2-PDC tumor spheroids, viability", "assay": "Anticancer human tumor 997726-040-R-J2-PDC patient-derived squamous cell lung carcinoma cell line growth inhibition [PI3K]", "conditions": "spheroids with HUVEC and MSC; for IC50: curve of first compound; for viability, T/C: stronger effect = lower value", "method_in_brief": "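Complex 3D spheroids (cancer cells + endothelial HUVEC + mesenchymal stem cells); drug pairs of targeted agent x inavolisib/alpelisib/duvelisib/copanlisib; half-log series from ~Cmax, max 10 microM if Cmax unknown; endpoint viability.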", "key": {"[1]": {"conditions": "second compound 0.00316 µM, first compound 0.0316 µM"}, "[2]": {"conditions": "second compound 0.00316 µM, first compound 0.1 µM"}, "[3]": {"conditions": "second compound 0.01 µM, first compound 0.0316 µM"}, "[4]": {"conditions": "second compound 0.01 µM, first compound 0.1 µM"}, "[5]": {"conditions": "second compound 0.0316 µM, first compound 0.0316 µM"}, "[6]": {"conditions": "second compound 0.0316 µM, first compound 0.1 µM"}, "[7]": {"conditions": "second compound 0.1 µM, first compound 0.0316 µM"}, "[8]": {"conditions": "second compound 0.1 µM, first compound 0.1 µM"}, "[9]": {"conditions": "second compound 0.316 µM, first compound 0.0316 µM"}, "[10]": {"conditions": "second compound 0.316 µM, first compound 0.1 µM"}, "[11]": {"conditions": "second compound 1 µM, first compound 0.0316 µM"}, "[12]": {"conditions": "second compound 1 µM, first compound 0.1 µM"}}, "data": [{"compound": "CC(C)n1nc(-c2ccc3oc(N)nc3c2)c2c(N)ncnc21", "note": "+ COc1c(OCCCN2CCOCC2)ccc2c3n(c(=NC(=O)c4cnc(N)nc4)nc12)CCN3;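 also: spheroids exposed to compounds for seven days before readout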", "values": [{"measurement": "IC50", "setting": "second compound 0.00316 µM", "result": 0.0182, "unit": "µM"}, {"measurement": "IC50", "setting": "second compound 0.01 µM", "result": 0.00297, "unit": "µM"}, {"measurement": "IC50", "setting": "second compound 0.0316 µM", "result": "< 0.000316", "unit": "µM"}, {"measurement": "IC50", "setting": "second compound 0.1 µM", "result": "< 0.000316", "unit": "µM"}, {"measurement": "IC50", "setting": "second compound 0.316 µM", "result": "< 0.000316", "unit": "µM"}, {"measurement": "IC50", "setting": "second compound 1 µM", "result": "< 0.000316", "unit": "µM"}, {"measurement": "viability, T/C", "setting": "second compound 0.00316 µM, first compound 0.000316 µM", "result": 74, "unit": "%"}, {"measurement": "viability, T/C", "setting": "second compound 0.00316 µM, first compound 0.001 µM", "result": 76.6, "unit": "%"}, {"measurement": "viability, T/C", "setting": "second compound 0.00316 µM, first compound 0.00316 µM", "result": 70, "unit": "%"}, {"measurement": "viability, T/C", "setting": "second compound 0.00316 µM, first compound 0.01 µM", "result": 61.1, "unit": "%"}, {"measurement": "viability, T/C", "setting": "[1]", "result": 39.9, "unit": "%"}, {"measurement": "viability, T/C", "setting": "[2]", "result": 16.4, "unit": "%"}, {"measurement": "viability, T/C", "setting": "second compound 0.01 µM, first compound 0.000316 µM", "result": 57.2, "unit": "%"}, {"measurement": "viability, T/C", "setting": "second compound 0.01 µM, first compound 0.001 µM", "result": 57.9, "unit": "%"}, {"measurement": "viability, T/C", "setting": "second compound 0.01 µM, first compound 0.00316 µM", "result": 45.5, "unit": "%"}, {"measurement": "viability, T/C", "setting": "second compound 0.01 µM, first compound 0.01 µM", "result": 42.2, "unit": "%"}, {"measurement": "viability, T/C", "setting": "[3]", "result": 33.2, "unit": "%"}, {"measurement": "viability, T/C", "setting": "[4]", "result": 13.1, "unit": "%"}, {"measurement": "viability, T/C", "setting": "second compound 0.0316 µM, first compound 0.000316 µM", "result": 32.4, "unit": "%"}, {"measurement": "viability, T/C", "setting": "second compound 0.0316 µM, first compound 0.001 µM", "result": 35.5, "unit": "%"}, {"measurement": "viability, T/C", "setting": "second compound 0.0316 µM, first compound 0.00316 µM", "result": 32.5, "unit": "%"}, {"measurement": "viability, T/C", "setting": "second compound 0.0316 µM, first compound 0.01 µM", "result": 29.6, "unit": "%"}, {"measurement": "viability, T/C", "setting": "[5]", "result": 23.7, "unit": "%"}, {"measurement": "viability, T/C", "setting": "[6]", "result": 5.54, "unit": "%"}, {"measurement": "viability, T/C", "setting": "second compound 0.1 µM, first compound 0.000316 µM", "result": 25.5, "unit": "%"}, {"measurement": "viability, T/C", "setting": "second compound 0.1 µM, first compound 0.001 µM", "result": 22.1, "unit": "%"}, {"measurement": "viability, T/C", "setting": "second compound 0.1 µM, first compound 0.00316 µM", "result": 21.3, "unit": "%"}, {"measurement": "viability, T/C", "setting": "second compound 0.1 µM, first compound 0.01 µM", "result": 16.3, "unit": "%"}, {"measurement": "viability, T/C", "setting": "[7]", "result": 9.54, "unit": "%"}, {"measurement": "viability, T/C", "setting": "[8]", "result": 2.12, "unit": "%"}, {"measurement": "viability, T/C", "setting": "second compound 0.316 µM, first compound 0.000316 µM", "result": 5.5, "unit": "%"}, {"measurement": "viability, T/C", "setting": "second compound 0.316 µM, first compound 0.001 µM", "result": 4.4, "unit": "%"}, {"measurement": "viability, T/C", "setting": "second compound 0.316 µM, first compound 0.00316 µM", "result": 4.05, "unit": "%"}, {"measurement": "viability, T/C", "setting": "second compound 0.316 µM, first compound 0.01 µM", "result": 2.91, "unit": "%"}, {"measurement": "viability, T/C", "setting": "[9]", "result": 1.89, "unit": "%"}, {"measurement": "viability, T/C", "setting": "[10]", "result": 1.02, "unit": "%"}, {"measurement": "viability, T/C", "setting": "second compound 1 µM, first compound 0.000316 µM", "result": 1.83, "unit": "%"}, {"measurement": "viability, T/C", "setting": "second compound 1 µM, first compound 0.001 µM", "result": 1.51, "unit": "%"}, {"measurement": "viability, T/C", "setting": "second compound 1 µM, first compound 0.00316 µM", "result": 1.18, "unit": "%"}, {"measurement": "viability, T/C", "setting": "second compound 1 µM, first compound 0.01 µM", "result": 1.56, "unit": "%"}, {"measurement": "viability, T/C", "setting": "[11]", "result": 1.91, "unit": "%"}, {"measurement": "viability, T/C", "setting": "[12]", "result": 0.84, "unit": "%"}]}, {"compound": "CCCS(=O)(=O)Nc1ccc(F)c(C(=O)c2c[nH]c3ncc(-c4ccc(Cl)cc4)cc23)c1F", "note": "+ COc1c(OCCCN2CCOCC2)ccc2c3n(c(=NC(=O)c4cnc(N)nc4)nc12)CCN3", "values": [{"measurement": "IC50", "setting": "second compound 0.00316 µM", "result": 6.61, "unit": "µM"}, {"measurement": "IC50", "setting": "second compound 0.01 µM", "result": 5.36, "unit": "µM"}, {"measurement": "IC50", "setting": "second compound 0.0316 µM", "result": 0.0316, "unit": "µM"}, {"measurement": "IC50", "setting": "second compound 0.1 µM", "result": "< 0.0316", "unit": "µM"}, {"measurement": "IC50", "setting": "second compound 0.316 µM", "result": "< 0.0316", "unit": "µM"}, {"measurement": "IC50", "setting": "second compound 1 µM", "result": "< 0.0316", "unit": "µM"}, {"measurement": "viability, T/C", "setting": "[1]", "result": 68.1, "unit": "%"}, {"measurement": "viability, T/C", "setting": "[2]", "result": 91.1, "unit": "%"}, {"measurement": "viability, T/C", "setting": "second compound 0.00316 µM, first compound 0.316 µM", "result": 101, "unit": "%"}, {"measurement": "viability, T/C", "setting": "second compound 0.00316 µM, first compound 1 µM", "result": 114, "unit": "%"}, {"measurement": "viability, T/C", "setting": "second compound 0.00316 µM, first compound 3.16 µM", "result": 136, "unit": "%"}, {"measurement": "viability, T/C", "setting": "second compound 0.00316 µM, first compound 10 µM", "result": 20.7, "unit": "%"}, {"measurement": "viability, T/C", "setting": "[3]", "result": 52.6, "unit": "%"}, {"measurement": "viability, T/C", "setting": "[4]", "result": 70.3, "unit": "%"}, {"measurement": "viability, T/C", "setting": "second compound 0.01 µM, first compound 0.316 µM", "result": 69.6, "unit": "%"}, {"measurement": "viability, T/C", "setting": "second compound 0.01 µM, first compound 1 µM", "result": 76, "unit": "%"}, {"measurement": "viability, T/C", "setting": "second compound 0.01 µM, first compound 3.16 µM", "result": 94, "unit": "%"}, {"measurement": "viability, T/C", "setting": "second compound 0.01 µM, first compound 10 µM", "result": 23.2, "unit": "%"}, {"measurement": "viability, T/C", "setting": "[5]", "result": 39.5, "unit": "%"}, {"measurement": "viability, T/C", "setting": "[6]", "result": 41.8, "unit": "%"}, {"measurement": "viability, T/C", "setting": "second compound 0.0316 µM, first compound 0.316 µM", "result": 44.2, "unit": "%"}, {"measurement": "viability, T/C", "setting": "second compound 0.0316 µM, first compound 1 µM", "result": 49.9, "unit": "%"}, {"measurement": "viability, T/C", "setting": "second compound 0.0316 µM, first compound 3.16 µM", "result": 57.1, "unit": "%"}, {"measurement": "viability, T/C", "setting": "second compound 0.0316 µM, first compound 10 µM", "result": 19.6, "unit": "%"}, {"measurement": "viability, T/C", "setting": "[7]", "result": 24, "unit": "%"}, {"measurement": "viability, T/C", "setting": "[8]", "result": 24.6, "unit": "%"}, {"measurement": "viability, T/C", "setting": "second compound 0.1 µM, first compound 0.316 µM", "result": 25.3, "unit": "%"}, {"measurement": "viability, T/C", "setting": "second compound 0.1 µM, first compound 1 µM", "result": 28.4, "unit": "%"}, {"measurement": "viability, T/C", "setting": "second compound 0.1 µM, first compound 3.16 µM", "result": 28, "unit": "%"}, {"measurement": "viability, T/C", "setting": "second compound 0.1 µM, first compound 10 µM", "result": 16.5, "unit": "%"}, {"measurement": "viability, T/C", "setting": "[9]", "result": 5.93, "unit": "%"}, {"measurement": "viability, T/C", "setting": "[10]", "result": 6.12, "unit": "%"}, {"measurement": "viability, T/C", "setting": "second compound 0.316 µM, first compound 0.316 µM", "result": 5.74, "unit": "%"}, {"measurement": "viability, T/C", "setting": "second compound 0.316 µM, first compound 1 µM", "result": 7.01, "unit": "%"}, {"measurement": "viability, T/C", "setting": "second compound 0.316 µM, first compound 3.16 µM", "result": 8.12, "unit": "%"}, {"measurement": "viability, T/C", "setting": "second compound 0.316 µM, first compound 10 µM", "result": 7.64, "unit": "%"}, {"measurement": "viability, T/C", "setting": "[11]", "result": 1.54, "unit": "%"}, {"measurement": "viability, T/C", "setting": "[12]", "result": 1.08, "unit": "%"}, {"measurement": "viability, T/C", "setting": "second compound 1 µM, first compound 0.316 µM", "result": 1.77, "unit": "%"}, {"measurement": "viability, T/C", "setting": "second compound 1 µM, first compound 1 µM", "result": 1.68, "unit": "%"}, {"measurement": "viability, T/C", "setting": "second compound 1 µM, first compound 3.16 µM", "result": 2.43, "unit": "%"}, {"measurement": "viability, T/C", "setting": "second compound 1 µM, first compound 10 µM", "result": 1.82, "unit": "%"}]}]}
